{
  "source": "patent US20080089947A1",
  "about": "“Calcium Influx Inhibitors in the Treatment of Ischemia” (priority 2006, published 2008)",
  "key": {"[1]": {"test_system": "liver ischemia/reperfusion injury", "protocol": "Methods: Following overnight fast, male Sprague-Dawley rats were placed under general anesthesia with isoflurane gas (3%, 2 L O2). Via a midline incision, a laparotomy was performed and the portal vein, hepatic artery, and bile duct were identified and dissected free from surrounding structures. […] Approximately 70% liver ischemia was created by using an atraumatic vessel clamp (S&T Microclamp B-3, Fine Science Tools, Foster City, Calif.) to occlude the portal vein and hepatic artery branches to the median and left liver lobes. […] The clamp was removed after 1 hour and the livers were given three hours to reperfuse with blood while the animals were conscious. Liver injury was assessed by serum levels of AST, ALT, LDH, which are three standard serum markers of acute ischemia/reperfusion injury to the liver. Histologic liver analysis using H&E staining and TUNEL assay, which identifies terminally damaged (apoptotic) cells, were used to look directly at cell damage in the collected livers.\nSerum Transaminase Determinations: Serum collected from each animal at the time of euthanasia was analyzed for aspartate aminotransferase (AST), alanine aminotransferase (ALT), and lactic acid dehydrogenase (LDH) concentrations.\nAssessment of apoptosis: In order to quantitate the rate of apoptosis in a sensitive manner, the inventors performed terminal deoxynucleotidyl transferase-mediated deoxyuridine triphosphate nick-end labeling (TUNEL) on paraffin embedded tissue sections from each animal. This assay was performed following the manufacturer's recommendations for a commercially available kit (ApopTag Plus Fluorescein In Situ Apoptosis Detection Kit, Chemicon International, Inc., Temecula, Calif.). Five randomly selected fields from each tissue section were examined at an original magnification of 200×. The number of positively staining cells per field was recorded. The average number of positively staining nuclei per field for each animal was used for analysis.\nQuantitation of liver necrosis: Paraffin embedded tissue sections were stained with hematoxylin and eosin (H&E) and examined at an original magnification of 200×. Digital photomicrographs were made from five randomly selected fields of each tissue section. […] ImagePro software was used to create specific overlays of any region of necrosis in each of the photomicrographs. Using these overlays, percent area necrosis was calculated for each photomicrograph. The average percent area necrosis for each animal was then used for analysis."}, "[2]": {"test_system": "liver ischemia/reperfusion injury", "procedure": "2-APB (2 mg/kg in DMSO), or vehicle (DMSO) was injected into the portal vein following 1 hour of ischemia, concurrent with removal of the vascular clamp. Animals were sacrificed after 3 hours of reperfusion (n=6 per group). Serum AST, ALT, and LDH levels were measured, and liver samples were evaluated histologically using H&E and TUNEL staining. To investigate the effect of 2-APB at the cellular level, an I/R model in HepG2 cells transfected with GFP-tagged cytochrome c was used. Statistical significance was assessed using Student t-test.", "remark": "listed apart in the source"}, "[3]": {"test_system": "mitochondrial calcium uptake (mitochondrial calcium uniporter)", "assay": "45Ca2+ uptake in isolated liver mitochondria", "assay_type": "biochemical, rat", "details": "for EC50: isolated mitochondria, pyruvate and malate, read-out: EC50 of inhibition of mitochondrial calcium uptake", "procedure": "Livers were isolated from male Sprague-Dawley rats (300 g). Rats were anesthetized with isoflurane and sacrificed by cervical dislocation. […] Briefly, the liver was minced and homogenized in liver homogenization buffer (LHB)(0.2 M mannitol, 50 mM sucrose, 10 mM KCl, and 1 mM Na2EDTA, pH=7.4, KOH). The homogenate was filtered through gauze and centrifuged 2 times for 10 min at 1,000× g. The supernatant was collected and centrifuged for 10 min at 3,000× g. The pellet was washed twice and resuspended in calcium-free LHB without EDTA to a concentration of 2 mg/mL. All steps were performed at 4° C.\nA combination of metabolic substrates pyruvic acid and malic acid (final concentration 1 mM each) was used as a source of mitochondrial energy. Radioactive ^45Ca^2+ (NEN Life Sciences Products, Inc., Boston, Mass.) was added to the incubation buffer (final concentration range: 0.1-2.0 μM). The experiments were initiated by addition of mitochondria to the incubation buffer (final concentration 0.2 mg/ml). 2-APB (in DMSO) was added at concentrations from 0-100 μM to determine its effects on mitochondrial calcium uptake. Mitochondria were incubated in a 37° C. shaking water bath for 30 minutes, filtered, and washed. Accumulated mitochondrial ^45Ca^2+ was then measured using liquid scintillation counting in a Beckman LS6000IC beta counter. Mitochondria in incubation buffer without pyruvic acid and malic acid served as background controls. Ruthenium red (10 μM), a uniporter antagonist, was tested in all conditions to determine inhibitory capacity on observed mitochondrial calcium uptake, and to ensure that all observed calcium uptake was through the uniporter.\nA combination of metabolic substrates pyruvic acid and malic acid was used as a source of mitochondrial energy. Radioactive ^45Ca^2+ was added to the incubation buffer (final concentration range: 0.1-2.0 μM). […] The calcium uptake experiments were initiated by addition of mitochondria to the incubation buffer (final concentration 0.2 mg/ml). Mitochondria were incubated in a 37° C. shaking water bath for 30 minutes, filtered, and washed, and calcium uptake quantified. Mitochondria in incubation buffer without pyruvic acid and malic acid served as background controls."}, "[4]": {"details": "cited from earlier work"}, "hepG2 cells": {"test_system": "hepG2 cells", "details": "100 μM in UW prior to cold storage, 6 hour ischemic", "protocol": "To investigate the cellular mechanisms of 2-APB, an in vitro model using hepG2 cells transfected with GFP-tagged cytochrome c was used. […] Cells were grown at 37° C., 5% CO2 in MEM (ATCC, Manassas, Va.), with 10% fetal bovine serum, and 1% penicillin/streptomycin to 80% confluence. The media was replaced with UW solution and cells were incubated at 4° C. in hypoxic conditions for 6 hours. Hypoxia was achieved by placing the cells in an airtight incubator (Form a Scientifica, Marietta, Ohio), which was flushed with 5% CO2 and 95% N2 until the oxygen content in the container reached <0.1%, as verified using a dissolved O2 meter (Model 4000, VWR Scientific Products, Suwannee, Ga.). To render the storage solution hypoxic before experiments were carried out, UW was preincubated in the hypoxic chamber in an open sterile container for 8 h before experiments were carried out. […] Following 6 hours of hypothermic storage, the UW was replaced with warm, oxygenated media, and the cells were incubated at 37° C. Cytoplasmic extracts were harvested in lysis buffer (10 mM of KCl, 10 mM of HEPES, 1 mM of NaEDTA, 200 mM of Mannitol, 50 mM of sucrose) immediately following storage and after 60, 120, and 180 min of rewarming. HepG2 cytoplasmic extracts were harvested before exposure to storage conditions to serve as a control (untreated control). […]"}, "liver transplantation": {"test_system": "liver transplantation", "details": "donor livers cold stored 24 hours in UW containing 2-APB", "procedure": "In further experiments, full scale liver transplants were performed in rats. Livers were harvested from male Sprague-Dawly rats and cold stored for 24 hours in UW solution, or UW containing 2-APB. The livers were then removed from cold storage and transplanted into recipient rats. The operations were performed under general anesthesia, and the animals were followed after surgery for 2 days."}, "PLC": {"test_system": "PLC", "details": "read-out: EC50 reported for PLC inhibition in intact cells; cited from earlier work"}, "[5]": {"test_system": "mitochondrial calcium uptake", "assay": "45Ca2+ uptake with ATP in mitochondria from non-ischemic and 24 h cold-stored livers", "assay_type": "biochemical, rat", "procedure": "Methods: Rat livers were perfused and stored using a previously reported technique (Belous et al., 2003). Briefly, an abdominal incision was made and the portal vein was cannulated with a 20-gauge cannula. The liver was then perfused with 30 ml 4° C. University of Wisconsin solution (UW). Half of the liver was processed for calcium uptake experiments immediately, while the other half was first stored for 24 hours in 4° C. UW solution (ischemic cold storage). Mitochondria were isolated from the liver as described in Example 1. Mitochondrial calcium uptake experiments were performed on isolated mitochondria from both the ischemic and non-ischemic portions of the liver as described in Example 1. In order to simulate the cellular conditions present during ischemia/reperfusion, 1 mM ATP was added to the incubation buffer. The selective, membrane-permeable PLC inhibitor, U-73122, was added to mitochondrial calcium uptake reaction tubes to a final concentration of 5 μM. This compound was tested on mitochondria isolated from both ischemic and non-ischemic livers to determine the effect of PLC inhibition on mitochondrial calcium uptake following ischemia/reperfusion. […] Ruthenium red (10 μM) was used to block the uniporter and ensure that all observed calcium uptake was ruthenium red-sensitive, and thus entering solely through the uniporter. To simulate reperfusion, mitochondria were incubated for 30 minutes in a 37° C. water bath with ATP present, after which the total mitochondrial calcium uptake was quantified as described in Example 1."}, "[6]": {"test_system": "liver ischemia/reperfusion injury", "assay": "70% liver ischemia/reperfusion, ruthenium red pretreatment", "assay_type": "in vivo, rat", "procedure": "Thirty minutes prior to the initiation of liver ischemia, animals received ruthenium red (30 mg/kg in NaCl) or vehicle (0.9% NaCl) IV. Ischemia was carried out for one hour. The total anesthesia time for the animals was 90 minutes. Sham operated animals received laparotomy, mobilization of the liver, and underwent equivalent anesthesia. Following vascular clamp removal, animals were allowed to reperfuse for periods of 15 minutes, 1 hr, 3 hr, or 6 hr. At the time of animal sacrifice, serum was collected, and liver tissue was preserved for histological analysis. A total of 40 animals were used for this experiment. Ten animals were used for each time point: 4 ischemia/reperfusion, 4r ischemia/reperfusion with ruthenium red pretreatment, and 2 sham operated animals. […] All experimental measurements and data were obtained as detailed in Example 2."}, "[7]": {"details": "0.5-7.5 μM, 0.2 μM 45Ca2+, baseline 0.14% DMSO"}, "[8]": {"details": "30 mg/kg, 30 min before 1 h ischemia, 6 hours of reperfusion"}},
  "note": "Entries after “also recorded” stand apart in the source; their conditions may differ.",
  "data": [
    {"compound": "NCCOB(c1ccccc1)c1ccccc1", "note": "[2-APB, 2-aminoethoxydiphenyl borate]", "values": [
      {"measurement": "liver damage by serum AST, ALT, LDH in sham-operated animals", "setting": "[1]; 2 mg/kg in DMSO, portal vein, after sham operation", "result": "neither 2-APB nor the vehicle, DMSO, were damaging to the liver"},
      {"measurement": "rise in serum AST, ALT and LDH", "setting": "[1]; 2 mg/kg in DMSO, portal vein, before 1 h ischemia, 3 h reperfusion", "result": "eliminated the rise in AST, ALT and LDH"},
      {"measurement": "liver histology 400×", "setting": "[1]; 2 mg/kg portal vein before 1 h ischemia, 3 h reperfusion", "result": "Cells are healthy and appear identical to the normal liver cells"},
      {"measurement": "cells undergoing cell death", "setting": "[1]; 2 mg/kg portal vein before 1 h ischemia, 3 h reperfusion, H&E and TUNEL", "result": "≤ 2", "unit": "%"},
      {"measurement": "elevation of serum AST, ALT and LDH", "setting": "[2]; 2 mg/kg in DMSO, portal vein at onset of reperfusion, 3 h reperfusion", "result": "significantly inhibited"},
      {"measurement": "liver necrosis, H&E histology", "setting": "[2]; 2-APB administered during reperfusion", "result": "little evidence of liver necrosis"},
      {"measurement": "EC50", "setting": "[3]; 30 min, 37° C.", "result": "2 to 3", "unit": "µM"},
      {"measurement": "mitochondrial calcium influx", "setting": "[3]; range of 1-100 μM 2-APB", "result": "consistently and dose-dependently inhibited"},
      {"measurement": "solubility in DMSO", "setting": "[4]", "result": 20, "unit": "mg/mL"},
      {"measurement": "solubility in ethanol", "setting": "[4]", "result": 25, "unit": "mg/mL"},
      {"measurement": "release of GFP-tagged cytochrome c into the cytoplasm", "setting": "hepG2 cells", "result": "prevented this release"},
      {"measurement": "Mortality at 2 days", "setting": "liver transplantation", "result": 0, "unit": "%"}
    ]},
    {"compound": "COc1ccc2c(c1)CCC1C2CCC2(C)C(NCCCCCCN3C(=O)C=CC3=O)CCC12", "note": "(stereo not drawn) [U-73122, 1-[6-((17β-3-Methoxyestra-1,3,5(10)-trien-17-yl)amino)hexyl]-1H-pyrrole-2,5-dione]", "values": [
      {"measurement": "EC50", "setting": "PLC", "result": "1 to 2.1", "unit": "µM"},
      {"measurement": "inhibition of mitochondrial calcium uptake", "setting": "[3]; 5 μM or greater U-73122", "result": "90-100%"},
      {"measurement": "mitochondrial calcium uptake", "setting": "[3]; [7]", "result": "dose-dependently inhibited"},
      {"measurement": "EC50", "setting": "[3]; 30 min, 37° C.", "result": "2 to 3", "unit": "µM"},
      {"measurement": "decrease of mitochondrial calcium uptake", "setting": "[5]; 5 μM, mitochondria from ischemic livers (24 h 4° C. UW), vs. ATP and calcium alone", "result": "85±2", "unit": "%"},
      {"measurement": "decrease of mitochondrial calcium influx", "setting": "[5]; 5 μM, mitochondria from non-ischemic livers, vs. ATP and calcium alone", "result": "54±5", "unit": "%"},
      {"measurement": "solubility in DMSO", "setting": "[4]", "result": 1, "unit": "mg/mL"},
      {"measurement": "solubility in ethanol", "setting": "[4]", "result": 0.5, "unit": "mg/mL"}
    ]},
    {"compound": "COc1ccc2c(c1)CC[C@@H]1[C@@H]2CC[C@]2(C)[C@@H](NCCCCCCN3C(=O)CCC3=O)CC[C@@H]12", "note": "[U-73343, 1-[6-((17β-3-Methoxyestra-1,3,5(10)-trien-17-yl)amino)hexyl]-2,5-pyrrolidinedione]", "values": [
      {"measurement": "mitochondrial calcium uptake", "setting": "[3]; [7]", "result": "no effect; also recorded: did not significantly affect"},
      {"measurement": "mitochondrial calcium uptake", "setting": "[5]; 5 μM, mitochondria from ischemic livers (24 h 4° C. UW)", "result": "slight and insignificant decrease; also recorded: no effect"},
      {"measurement": "mitochondrial calcium uptake", "setting": "[5]; 5 μM, mitochondria from non-ischemic livers", "result": "slight but significant increase; also recorded: did not"}
    ]},
    {"compound": "N.N.N.N.N.N.N.N.N.N.N.N.N.N.[Cl-].[Cl-].[Cl-].[Cl-].[Cl-].[Cl-].[O-2].[O-2].[Ru+3].[Ru+3].[Ru+4]", "note": "[ruthenium red]", "values": [
      {"measurement": "serum ALT", "setting": "[6]; [8]", "result": "294±39"},
      {"measurement": "serum AST", "setting": "[6]; [8]", "result": "597±121"},
      {"measurement": "liver necrosis", "setting": "[6]; 3 and 6 hours of reperfusion", "result": "significantly decreased"},
      {"measurement": "AST and ALT levels", "setting": "[6]; 3 hours of reperfusion", "result": "trend for the animals pretreated with ruthenium red to have lower AST and ALT levels"},
      {"measurement": "liver necrosis, percent area", "setting": "[6]; 3 hours of reperfusion", "result": "5%±2%"},
      {"measurement": "reduction in ALT levels", "setting": "[6]; 6 hour reperfusion time point", "result": 4, "unit": "fold"},
      {"measurement": "reduction in AST levels", "setting": "[6]; 6 hour reperfusion time point", "result": 2.5, "unit": "fold"},
      {"measurement": "liver necrosis, percent area", "setting": "[6]; 6 hours of reperfusion", "result": "3%±1%"},
      {"measurement": "rate of apoptosis (TUNEL)", "setting": "[6]; all reperfusion time points (15 min, 1, 3, 6 hr)", "result": "significantly decreased"},
      {"measurement": "AST or ALT levels in sham operated animals", "setting": "[6]; pretreatment of sham operated animals vs. vehicle alone", "result": "did not alter"},
      {"measurement": "mitochondrial calcium uptake", "setting": "[3]; 10 μM ruthenium red, 30 min, 37° C.", "result": "completely blocked"},
      {"measurement": "mitochondrial calcium uptake", "setting": "[5]; 10 μM ruthenium red, mitochondria from both ischemic and non-ischemic livers", "result": "prevented calcium uptake"},
      {"measurement": "mitochondrial calcium uptake", "setting": "[5]; 10 μM ruthenium red, mitochondria from both ischemic and non-ischemic livers, listed as Ruthenium red", "result": "completely blocked"},
      {"measurement": "solubility in water", "setting": "[4]", "result": "soluble in water"}
    ]},
    {"compound": "Ru360", "values": [
      {"measurement": "solubility in water", "setting": "[4]", "result": "soluble in water"}
    ]}
  ]
}
